Reference: ChEMBL document CHEMBL1201862, “PubChem BioAssay data set” (2004)
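Exposure lasted 48 hours, with cells grown in 96-well plates and compounds tested at five concentrations. Abbreviation: GI50, concentration required for 50% inhibition of growth.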 The source made the active and inactive calls. No stated cut-off is given here; in the data, active = GI50 up to about 1.1 µM and inactive = higher.

Assays:
Experiment in all cases: DTP human tumour cell line panel, 48 h
[1] = test system: MDA-N
[2] = test system: HOP-92
[3] = test system: LOX IMVI
[4] = test system: OVCAR-4
[5] = test system: SK-MEL-5
[6] = test system: KM12
[7] = test system: SF-268
[8] = test system: NCI-H23
[9] = test system: DLD-1
[10] = test system: MDA-MB-231
[11] = test system: EKVX
[12] = test system: HCC 2998
[13] = test system: PC-3
[14] = test system: OVCAR-3
[15] = test system: K562
[16] = test system: U-251
[17] = test system: IGROV-1
[18] = test system: A498
[19] = test system: CCRF-CEM
[20] = test system: HCT-116

SMILES	GI50 [1]	GI50 [2]	GI50 [3]	GI50 [4]	GI50 [5]	GI50 [6]	GI50 [7]	GI50 [8]	GI50 [9]	GI50 [10]	GI50 [11]	GI50 [12]	GI50 [13]	GI50 [14]	GI50 [15]	GI50 [16]	GI50 [17]	GI50 [18]	GI50 [19]	GI50 [20]
O=C1/C(=C/c2ccccc2)CN(C(=O)CCN2CCOCC2)C/C1=C\c1ccccc1	2.06 µM (inactive)	9.79 µM (inactive)	0.897 µM (active)	2.94 µM (inactive)	2.17 µM (inactive)	1.6 µM (inactive)	2.87 µM (inactive)	2.55 µM (inactive)	1.88 µM (inactive)	3.47 µM (inactive)	13.6 µM (inactive)	1.87 µM (inactive)	2.75 µM (inactive)	3.91 µM (inactive)	0.388 µM (active)	1.79 µM (inactive)	6.04 µM (inactive)	12.9 µM (inactive)	1.38 µM (inactive)	0.778 µM (active)
CCN(CC)CCn1ccc(=O)c2cc3c(=O)ccn(CCN(CC)CC)c3c(C)c21	5.57 µM (inactive)	7.69 µM (inactive)	2.84 µM (inactive)	2.02 µM (inactive)	15.7 µM (inactive)	0.993 µM (active)	4.07 µM (inactive)	6.75 µM (inactive)	1.65 µM (inactive)	5.27 µM (inactive)	5.77 µM (inactive)	1.44 µM (inactive)	4.79 µM (inactive)	8.55 µM (inactive)	2.77 µM (inactive)	5.89 µM (inactive)	7.28 µM (inactive)	15.5 µM (inactive)	1.77 µM (inactive)	1.82 µM (inactive)
C=C(CN(C)C)C(=O)c1ccccc1[N+](=O)[O-]	14.5 µM (inactive)	9.14 µM (inactive)	7.94 µM (inactive)	16.9 µM (inactive)	18.8 µM (inactive)	31.1 µM (inactive)	27.2 µM (inactive)	16.9 µM (inactive)	13.4 µM (inactive)	18.2 µM (inactive)	> 43.5 µM (inactive)	29.9 µM (inactive)	17.4 µM (inactive)	18.9 µM (inactive)	3.39 µM (inactive)	32.2 µM (inactive)	22.2 µM (inactive)	> 57.8 µM (inactive)	–	17.3 µM (inactive)
